The subject of test [1] is YAP/TAZ. Nature of the test: Screening: YAP/TAZ activity reporter (8xGTIIC plasmid) assay in NUGC3 cells (luminescence % of DMSO). The settings on record: NUGC3 cells, luminescence relative to DMSO. It is filed as cell-based, human.
Test [2] concerns MGG23. The test can be described thus: Sphere-forming ability (anchorage-independent cell proliferation), MGG23. It is filed as cell-based, human. The following applies: MGG23 (low FTSJ1 expression), 1 week, 0-5000 nM; FIG. 4B. The method, then:
(§1) To verify whether the expression analysis of these gene clusters contributes to predicting the anti-cancer effect by the FTSJ1 inhibitors, the FTSJ1 gene was actually used as an example to analyze the anti-cancer effect of the FTSJ1 inhibitor PVZF2001 on human malignant brain tumor cell lines. Human malignant brain tumor cell lines MGG4, MGG8, MGG18, MGG23 were treated with stem cell medium (Neurobasal, B-27, N-2, 20 ng/mL EGF, 20 ng/mL bFGF) containing different concentrations (0 nm, 200 nM, 500 nM, 1000 NM, 2000 NM, 5000 nM) of PVZF2001 for 1 week, and anchorage-independent cell proliferation was evaluated based on sphere-forming ability.

Test [3] has as its system 39 types of human cancer cell lines (JFCR39). Nature of the test: Cell line panel (JFCR39) cell proliferation, sulforhodamine B, GI50. It is filed as cell-based. Here is the method:
In order to extract genes that prescribe the sensitivity and resistance with respect to the FTSJ1 inhibitors, PVZF2001 was used to proceed with the analysis with a cell line panel (JFCR39). […] The GI50 value is defined, based on the number of cells before drug exposure, as a concentration at which the increase is inhibited by 50% by drug treatment, with the increase in a sample cultured for 48 hours without drug treatment (negative control) taken as 100%. In order to extract the target gene clusters, a COMPARE analysis was first performed using gene expression and the Log GI50 values in all of the cell lines. The gene clusters of SEQ ID NOs: 14 to 28 were then identified as FTSJ1 inhibitor resistance-related genetic markers, while the gene clusters of SEQ ID NOs: 34 to 47 were identified as FTSJ1 inhibitor sensitive-related genetic markers. […] The gene clusters of SEQ ID NOs: 29 to 33 were then identified as FTSJ1 inhibitor resistance-related genetic markers, while the gene clusters of SEQ ID NOs: 48 to 56 were identified as FTSJ1 inhibitor sensitive-related genetic markers. Using these genetic markers, a database of gene expression information (TCGA) obtained from patient samples was analyzed. […] That is, the results reveal that the FTSJ1 gene expression level itself also represents sensitivity and resistance with respect to the FTSJ1 inhibitors (SEQ ID NO: 57).

Test [4] has as its system polyglutamine luciferase reporter. The test can be described thus: Screening: polyglutamine luciferase reporter assay in NUGC3 cells (luminescence % of DMSO). It is filed as cell-based, human. The settings on record: NUGC3 cells, luminescence relative to DMSO. In general terms: Reporter assays use an easily measured gene product as a stand-in for the process of interest.
Test [5] deals with MGG8. Nature of the test: Sphere-forming ability (anchorage-independent cell proliferation), MGG8. The following applies: MGG8 (high FTSJ1 expression), 1 week, 0-5000 nM; FIG. 4B. Format: cell-based, human. The method, then: as §1

Turning to `CC(C)c1cc(C(C)C)c(S(=O)(=O)CC2CC(C)(C)CC(C)(C)C2)c(C(C)C)c1` [PVZF2001], the “8×GTIIC” value in test [1] (5 μM) is 40.38%; in test [1] (10 μM), 20.02%. The figures for the “anchorage-independent cell proliferation (sphere-forming ability)” value in test [2] and in test [5] were “showed cell proliferation even when treated at a concentration as high as 2000 NM” and “showed proliferation inhibition at low concentrations”, respectively. Besides, the “sensitivity / resistance of cell line (Log GI50, FIG. 4A)” value in test [3] (DMS114, 48 hours) is on record as “high sensitivity”; in test [3] (NCI-H23, 48 hours) it was “high resistance”; in test [3] (NCI-H522, 48 hours) it was “high sensitivity”; in test [3] (SF-539, 48 hours), “high sensitivity”; in test [3] (SNB-75, 48 hours) it was “high sensitivity”; in test [3] (SNB-78, 48 hours), “high resistance”. Also, the “sensitivity / resistance of cell line (Log GI50, FIG. 4A)” value in test [3] (U251, 48 hours) was “high sensitivity”. The Polyglutamine in test [4] (5 μM) stood at 41.05%; in test [4] (10 μM) it was 19.01%.

These data come from patent publication US20230210834A1, “RNA METHYLTRANSFERASE INHIBITOR, SCREENING METHOD THEREFOR, ANTI-CANCER AGENT EFFICACY ASSESSMENT MARKER, AND KIT FOR EFFECTIVELY PREDICTING FTSJ1 INHIBITOR” (National University Corporation Okayama University, priority 2019, published 2023).
